According to US20030228621A1, “Common ligand universal enzyme assay and compositions for use therein” (priority 2002, published 2003):
Like-named read-outs stand apart in the source and are kept apart here.

Experiments:
[1] = target: Enoyl-acyl carrier protein reductase (EACPR) (Escherichia coli, UniProt P0AEK4); assay: Enzyme activity in presence and absence of varying concentration of dye, EACPR; assay type: biochemical; conditions: read-out: Inhibition (IC50, nM) EACPR
Procedure: (§1) In search for specific ligands with potent binding to several dehydrogenases we screened our internal enzyme panel. In brief, activity of the enzymes was measured in the presence and absence of the varying concentration of the dyes.

[2] = target: 1-deoxy-D-xylulose 5-phosphate reductoisomerase (DOXPR) (Escherichia coli, UniProt P45568); assay: Displacement of FITC-NADPH from the FITC-NADPH:DOXPR complex (FIG. 14A, 14B); assay type: binding; conditions: displacement of FITC-NADPH tracer from DOXPR
Description: (§2) The competitive binding of the dye common ligands of the present invention can be evaluated by use of a displacement assay. In particular, enzyme in the presence of a competitive ligand will have less FITC-NADPH bound if both ligands compete for the same site. […] The dye common ligands of the present invention can completely displace FITC-NADPH from complexes containing this fluorescent tracer and a dehydrogenase. […] Thus, dye common ligands of the invention are useful in displacement assays to study the activity of an oxidoreductase, particularly those having unknown function.
(§3) In competitive assays, the tested dyes displaced the fluorescent-based tracer FITC-NADPH, implying that the dyes bind to DOXPR at the common ligand site. In this assay, enzyme in the presence of the ligand has less FITC-NADPH bound if both of the ligands compete for the same site. […] Calculated Kd values were based on curve shape and were lower than the experimentally determined IC50s.

[3] = target: T1, dihydrodipicolinate reductase (DHPR) (Escherichia coli, UniProt P04036); assay: Enzyme activity in presence and absence of varying concentration of dye, DHPR; assay type: biochemical; conditions: for IC50: read-out: Inhibition (IC50, nM) DHPR
Procedure: as §1

[4] = target: T1, dihydrodipicolinate reductase (DHPR); assay: Fluorescence polarization displacement of FITC-NADH from dihydrodipicolinate reductase; assay type: binding
Procedure: FITC-NADH was dissolved in 10 mM TAPS buffer with 5% NaHCO3, pH=8. The final concentration of FITC-NADH was 150 μM. In later experiments 150 μM FITC-NADH was diluted to the desired concentration in 20 mM Potassium Phosphate buffer, pH=7.4. Fluorescence polarization was monitored using a Beacon 2000 Variable Temperature Fluorescence Polarization System (PanVera Corporation, Madison, Wis.) and an LJL Analyst HT 96-384 (Molecular Devices Corporation, Sunnyvale, Calif.). The concentration of FITC-NADH as fluorescent tracer was selected by measuring fluorescence polarization of varying concentrations of FITC-NADH in 10 mM Potassium Phosphate buffer, pH=7.4. The concentration range was 0.15 nM—15 nM. For the best signal to noise ratio regarding both the horizontal and vertical intensities that contribute to the fluorescence polarization value, a concentration of 25 nM was chosen for FITC-NADH in the majority of experiments.
The fluorescence polarization of solutions of 7 μM dihydrodipicolinate reductase and 25 nM FITC-NADH with NADH was measured. The concentration of dihydrodipicolinate reductase was such that a solution of dihydrodipicolinate reductase and FITC-NADH would give the fluorescence polarization mP value of 220-230 mP. The blank was protein in buffer and NADH. […] The data was fitted to the following equation:
mP=YH′−(YH′−YL)*(1/(1+Kd^app/C))
Kd=Kd^app*(1/(1+A/Kd^tracer))
(§4) where C is the concentration of NADH; A is the concentration of enzyme; YH′ is the polarization for the FITC-NADH at the specified enzyme concentration in the absence of NADH; YL is the polarization for FITC-NADH when fully displaced from the enzyme by NADH; and Kd^tracer is the dissociation constant of the enzyme for FITC-NADH.
The displacement of FITC-NADH from dihydrodipicolinate reductase in the presence of the candidate inhibitor compound bromaminic acid, an NMNH-mimic (nicotinamide mononucleotide mimic), was measured by fluorescence polarization assay. The concentration of dihydrodipicolinate reductase was such that dihydrodipicolinate reductase in the presence of FITC-NADH would give the fluorescence polarization, mP, value of 220-230. Protein in buffer combined with the inhibitor was used as the blank.
The Log(bromaminic acid, μM) versus Polarization (mP) data were fitted to the following equation: […]
as §4
In this assay, enzyme in the presence of the ligand has less FITC-NADPH bound if both of the ligands compete for the same site.
(§5) A population of 620 compounds were screened in the competitive displacement assay described herein. […] These compounds are depicted in FIG. 16.

DOXPR = DOXPR (Escherichia coli, UniProt P45568); assay: Displacement of FITC-NADPH from the FITC-NADPH:DOXPR complex; assay type: binding
Description: as §2, §3, §5

[5] = target: Deoxy-D-xylulose 5-phosphate reductoisomerase (DOXPR) (Escherichia coli, UniProt P45568); assay: Enzyme activity in presence and absence of varying concentration of dye, DOXPR; assay type: biochemical; conditions: for IC50: NADPH at sixteen times its Km, read-out: Inhibition (IC50, nM) DOXPR
Procedure: as §1
(§6) In this assay, the oxidoreductase common ligand (NADPH) was employed at a concentration sixteen times its Km value. Use of such a high concentration of oxidoreductase common ligand results in a calculated IC50 value at least 17-fold that of the dissociation constant (Kd).

dehydrogenases = assay: Extent and reversibility of inhibition of the dehydrogenase panel by triazinyl dyes; assay type: biochemical
Procedure: as §1
Since all of the dye molecules have a triazinyl reactive group, reversibility of the inhibition was checked.
as §6

[6] = target: Lactate dehydrogenase (LDH); assay: Enzyme activity in presence and absence of varying concentration of dye, LDH; assay type: biochemical; conditions: read-out: Inhibition (IC50, nM) LDH
Procedure: as §1

[7] = target: T2, 3-Hydro-3-methyl-glutaryl-CoA reductase (HMGCoAR) (Homo sapiens, UniProt P04035); assay: Enzyme activity in presence and absence of varying concentration of dye, HMGCoAR; assay type: biochemical; conditions: read-out: Inhibition (IC50, nM) HMGCoAR
T2 sequence (P04035 1-888): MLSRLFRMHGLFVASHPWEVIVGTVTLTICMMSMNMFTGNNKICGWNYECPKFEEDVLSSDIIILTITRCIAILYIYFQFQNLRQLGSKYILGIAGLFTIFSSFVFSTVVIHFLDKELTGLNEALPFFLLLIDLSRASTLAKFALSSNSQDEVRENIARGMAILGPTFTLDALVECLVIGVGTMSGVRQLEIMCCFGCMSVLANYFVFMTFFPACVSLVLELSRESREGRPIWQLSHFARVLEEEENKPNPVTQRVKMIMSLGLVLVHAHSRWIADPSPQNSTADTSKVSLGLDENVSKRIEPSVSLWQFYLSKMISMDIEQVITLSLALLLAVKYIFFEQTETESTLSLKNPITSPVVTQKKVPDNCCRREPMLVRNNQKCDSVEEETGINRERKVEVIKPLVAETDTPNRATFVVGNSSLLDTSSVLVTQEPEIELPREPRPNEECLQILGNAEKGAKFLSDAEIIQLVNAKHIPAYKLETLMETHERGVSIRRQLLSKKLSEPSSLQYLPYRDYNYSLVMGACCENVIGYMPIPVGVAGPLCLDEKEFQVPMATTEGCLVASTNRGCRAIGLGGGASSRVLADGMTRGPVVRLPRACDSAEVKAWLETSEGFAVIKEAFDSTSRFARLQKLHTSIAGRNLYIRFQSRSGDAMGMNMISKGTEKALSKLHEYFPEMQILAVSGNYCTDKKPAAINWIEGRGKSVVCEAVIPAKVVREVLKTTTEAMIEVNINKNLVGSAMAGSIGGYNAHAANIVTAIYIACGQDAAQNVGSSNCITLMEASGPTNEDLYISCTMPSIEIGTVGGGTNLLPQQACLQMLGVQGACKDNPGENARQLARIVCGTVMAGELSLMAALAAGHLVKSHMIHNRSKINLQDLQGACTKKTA
Procedure: as §1

DHPR = DHPR (Escherichia coli, UniProt P04036); assay: Intrinsic fluorescence of the compound upon binding to the enzyme; conditions: excitation 365 nm, emission 435 nm
Description: It can be used either as a tracer for the screening, with or without being labeled with a detectable moiety of the invention. As such, this compound can be used for screening candidate ligands.

[8] = calculated from curve shape, read-out: Kd from displacement experiments with FITC-NADH and DHPR
[9] = 7 μM DHPR, 25 nM FITC-NADH, not corrected for enzyme concentration, read-out: Kapp (Kd app), displacement of FITC-NADH
[10] = 7 μM DHPR, 25 nM FITC-NADH, read-out: actual Kd after correction for enzyme concentration

T1 sequence (P04036 whole entry): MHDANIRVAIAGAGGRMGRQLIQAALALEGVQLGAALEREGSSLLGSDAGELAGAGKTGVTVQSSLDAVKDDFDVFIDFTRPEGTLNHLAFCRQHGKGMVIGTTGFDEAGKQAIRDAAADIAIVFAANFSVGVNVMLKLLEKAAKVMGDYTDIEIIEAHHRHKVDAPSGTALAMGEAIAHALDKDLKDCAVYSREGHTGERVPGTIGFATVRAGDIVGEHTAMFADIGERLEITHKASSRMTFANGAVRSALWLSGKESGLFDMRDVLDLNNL
Sequence of Deoxy-D-xylulose 5-phosphate reductoisomerase (DOXPR) (P45568 whole entry): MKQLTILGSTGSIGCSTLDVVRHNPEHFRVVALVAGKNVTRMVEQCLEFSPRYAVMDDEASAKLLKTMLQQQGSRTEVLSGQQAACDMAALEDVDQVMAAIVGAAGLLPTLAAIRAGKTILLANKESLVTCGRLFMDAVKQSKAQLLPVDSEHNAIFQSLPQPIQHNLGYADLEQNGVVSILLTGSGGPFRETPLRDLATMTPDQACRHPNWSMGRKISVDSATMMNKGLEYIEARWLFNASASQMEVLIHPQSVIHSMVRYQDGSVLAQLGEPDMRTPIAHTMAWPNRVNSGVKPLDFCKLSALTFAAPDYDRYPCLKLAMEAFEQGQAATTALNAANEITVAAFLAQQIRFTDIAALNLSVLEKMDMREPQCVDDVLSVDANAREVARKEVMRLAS
Sequence of 1-deoxy-D-xylulose 5-phosphate reductoisomerase (DOXPR) (P45568 whole entry): as above
Sequence of DOXPR (P45568 whole entry): as above
Sequence of Enoyl-acyl carrier protein reductase (EACPR) (P0AEK4 whole entry): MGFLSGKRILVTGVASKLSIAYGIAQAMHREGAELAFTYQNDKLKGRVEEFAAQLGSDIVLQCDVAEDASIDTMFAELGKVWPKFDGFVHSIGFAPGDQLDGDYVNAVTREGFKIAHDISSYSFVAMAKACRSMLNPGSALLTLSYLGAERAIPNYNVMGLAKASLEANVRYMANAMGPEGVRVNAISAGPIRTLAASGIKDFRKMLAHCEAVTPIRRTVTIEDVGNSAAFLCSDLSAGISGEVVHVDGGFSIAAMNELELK
Sequence of DHPR (P04036 whole entry): as the sequence (P04036 whole entry) above

## O=S(=O)(O)c1cc(Nc2nc(Cl)nc(Nc3ccc(Nc4nc(Cl)nc(Nc5cc(S(=O)(=O)O)cc6cc(S(=O)(=O)O)c(N=Nc7ccccc7S(=O)(=O)O)c(O)c56)n4)cc3)n2)c2c(O)c(N=Nc3ccccc3S(=O)(=O)O)c(S(=O)(=O)O)cc2c1 [Reactive Red 120]
[1]
  IC50: 246 nM
[2]; calculated, based on curve shape
  Kd: 5.8 nM
[2]
  IC50: 310 nM
[3]
  IC50: 220 nM
[4]; [8]
  Kd: 54 nM
DOXPR
  displacement of FITC-NADPH from the FITC-NADPH:DOXPR complex: completely displaced
[5]
  mode of inhibition versus oxidoreductase common ligand (NADPH): competitive
  IC50: 230 nM
dehydrogenases
  reversibility of the inhibition: full reversible inhibition
[6]
  IC50: 9.7 nM
[7]
  IC50: 360 nM

## Nc1c(S(=O)(=O)O)cc(Nc2ccc(Nc3nc(Cl)nc(Nc4cccc(S(=O)(=O)O)c4)n3)c(S(=O)(=O)O)c2)c2c1C(=O)c1ccccc1C2=O [Reactive Blue 2]
[1]
  IC50: 2500 nM
[3]
  IC50: 1100 nM
[5]
  IC50: 2000 nM
dehydrogenases
  reversibility of the inhibition: full reversible inhibition
[6]
  IC50: 1500 nM
[7]
  IC50: 1000 nM

## NC(=O)C1=CN([C@@H]2O[C@H](COP(=O)(O)OP(=O)(O)OC[C@H]3O[C@@H](n4cnc5c(N)ncnc54)[C@H](O)[C@@H]3O)[C@@H](O)[C@H]2O)C=CC1 [NADH, Reduced nicotinamide adenine dinucleotide]
[4]; [9]
  Kd: 1200 ± 150 nM
[4]; [10]
  Kd: 200 nM

## Nc1c(S(=O)(=O)O)cc(Br)c2c1C(=O)c1ccccc1C2=O [bromaminic acid]
[4]; [9]
  Kd: 30000 ± 2200 nM
[4]; [10]
  Kd: 5000 nM

## O=S(=O)(O)c1cc(Nc2nc(Nc3ccccc3)nc(N(CCO)CCO)n2)ccc1/C=C\c1ccc(Nc2nc(Nc3ccccc3)nc(N(CCO)CCO)n2)cc1S(=O)(=O)O
DHPR
  increase in intrinsic fluorescence upon binding to the enzyme: 3 fold
[4]; compound from screen of 620 compounds, read-out: kd, tight binding to DHPR
  Kd: < 100 nM

## Reactive Green 5
[3]
  IC50: 230 nM
[4]; [8]
  Kd: 15 nM
DOXPR
  displacement of FITC-NADPH from the FITC-NADPH:DOXPR complex: completely displaced
[5]
  mode of inhibition versus oxidoreductase common ligand (NADPH): competitive
dehydrogenases
  reversibility of the inhibition: full reversible inhibition
[6]
  IC50: 590 nM
[7]
  IC50: 44 nM

## Sulphophthalocyanine
[3]; tested for inhibition of DHPR
  binding to DHPR: binds
[5]; tested for inhibition of DOXPR
  binding to DOXPR: binds
